pIC50: −log10 of the molar value.
Legend:
K562 = test: Growth inhibition of human K562 cells after 48 hrs by SRB assay; format: functional; details: K562, 48 h
U-251 = test: Growth inhibition of human U251 cells after 48 hrs by SRB assay; format: functional; details: U-251, 48 h
[1] = molecular target: Vascular endothelial growth factor receptor 2 (Homo sapiens, UniProt P35968); test: Inhibition of VEGFR-2 (unknown origin) after 40 mins by Kinase-GloPlus luminescence assay
[2] = Growth inhibition of human RXF393 cells after 48 hrs by SRB assay; format: functional; details: RXF 393, 48 h
[3] = Growth inhibition of human SW620 cells after 48 hrs by SRB assay; format: functional; details: SW-620, 48 h
[4] = Growth inhibition of human OVCAR8 cells after 48 hrs by SRB assay; format: functional; details: OVCAR-8, 48 h
[5] = Growth inhibition of human SNB75 cells after 48 hrs by SRB assay; format: functional; details: SNB-75, 48 h
[6] = Growth inhibition of human PC3 cells after 48 hrs by SRB assay; format: functional; details: PC-3, 48 h
[7] = molecular target: Aurora kinase A (Homo sapiens) (UniProt O14965); test: Inhibition of Aurora A (unknown origin) at 10 uM
Chain of Aurora kinase A (Homo sapiens) (O14965 whole entry): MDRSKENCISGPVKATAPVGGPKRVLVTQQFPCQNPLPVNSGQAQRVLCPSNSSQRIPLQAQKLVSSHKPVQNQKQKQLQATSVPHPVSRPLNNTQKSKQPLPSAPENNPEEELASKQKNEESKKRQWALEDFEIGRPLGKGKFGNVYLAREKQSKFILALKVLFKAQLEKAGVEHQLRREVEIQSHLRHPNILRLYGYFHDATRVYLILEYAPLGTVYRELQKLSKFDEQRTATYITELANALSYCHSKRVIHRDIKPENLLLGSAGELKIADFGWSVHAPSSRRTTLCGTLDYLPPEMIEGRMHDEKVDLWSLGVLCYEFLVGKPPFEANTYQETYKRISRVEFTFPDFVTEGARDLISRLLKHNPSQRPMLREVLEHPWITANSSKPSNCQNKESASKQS

HT-29 = test: Growth inhibition of human HT-29 cells after 48 hrs by SRB assay; format: functional; details: HT-29, 48 h
[8] = Growth inhibition of human COLO205 cells after 48 hrs by SRB assay; format: functional; details: COLO 205, 48 h
[9] = Growth inhibition of human LOXIMVI cells after 48 hrs by SRB assay; format: functional; details: LOX IMVI
NCI-H522 = test: Growth inhibition of human NCI-H522 cells after 48 hrs by SRB assay; format: functional; details: NCI-H522, 48 h
MCF7 = test: Growth inhibition of human MCF7 cells after 48 hrs by SRB assay; format: functional; details: MCF7, 48 h
MDA-MB-468 = test: Growth inhibition of human MDA-MB-468 cells after 48 hrs by SRB assay; format: functional; details: MDA-MB-468, 48 h
M14 = test: Growth inhibition of human M14 cells after 48 hrs by SRB assay; format: functional; details: M14, 48 h
[10] = Growth inhibition of human DU145 cells after 48 hrs by SRB assay; format: functional; details: DU-145, 48 h
[11] = Growth inhibition of human UACC257 cells after 48 hrs by SRB assay; format: functional; details: UACC-257, 48 h
[12] = Growth inhibition of human Caki1 cells after 48 hrs by SRB assay; format: functional; details: CAKI-1, 48 h
T47D = test: Growth inhibition of human T47D cells after 48 hrs by SRB assay; format: functional
NCI-H460 = test: Growth inhibition of human NCI-H460 cells after 48 hrs by SRB assay; format: functional; details: NCI-H460, 48 h
[13] = Growth inhibition of human NCI-ADR-RES cells after 48 hrs by SRB assay; format: functional
[14] = Growth inhibition of human HCT116 cells after 48 hrs by SRB assay; format: functional; details: HCT-116, 48 h
SK-MEL-2 = test: Growth inhibition of human SK-MEL-2 cells after 48 hrs by SRB assay; format: functional; details: SK-MEL-2, 48 h
[15] = Growth inhibition of human SKOV3 cells after 48 hrs by SRB assay; format: functional; details: SK-OV-3, 48 h
A549 = test: Growth inhibition of human A549/ATCC cells after 48 hrs by SRB assay; format: functional; details: A549, 48 h
[16] = Growth inhibition of human HCT15 cells after 48 hrs by SRB assay; format: functional; details: HCT-15, 48 h
KM12 = test: Growth inhibition of human KM12 cells after 48 hrs by SRB assay; format: functional; details: KM12, 48 h
[17] = Growth inhibition of human HL-60(TB) cells after 48 hrs by SRB assay; format: functional; details: HL-60, 48 h
[18] = Growth inhibition of human HOP92 cells after 48 hrs by SRB assay; format: functional; details: HOP-92, 48 h
A498 = test: Growth inhibition of human A498 cells after 48 hrs by SRB assay; format: functional; details: A498, 48 h
NCI-H23 = test: Growth inhibition of human NCI-H23 cells after 48 hrs by SRB assay; format: functional; details: NCI-H23, 48 h
[19] = read-out: LC50 (the source's name)

Chain of Vascular endothelial growth factor receptor 2 (P35968 whole entry): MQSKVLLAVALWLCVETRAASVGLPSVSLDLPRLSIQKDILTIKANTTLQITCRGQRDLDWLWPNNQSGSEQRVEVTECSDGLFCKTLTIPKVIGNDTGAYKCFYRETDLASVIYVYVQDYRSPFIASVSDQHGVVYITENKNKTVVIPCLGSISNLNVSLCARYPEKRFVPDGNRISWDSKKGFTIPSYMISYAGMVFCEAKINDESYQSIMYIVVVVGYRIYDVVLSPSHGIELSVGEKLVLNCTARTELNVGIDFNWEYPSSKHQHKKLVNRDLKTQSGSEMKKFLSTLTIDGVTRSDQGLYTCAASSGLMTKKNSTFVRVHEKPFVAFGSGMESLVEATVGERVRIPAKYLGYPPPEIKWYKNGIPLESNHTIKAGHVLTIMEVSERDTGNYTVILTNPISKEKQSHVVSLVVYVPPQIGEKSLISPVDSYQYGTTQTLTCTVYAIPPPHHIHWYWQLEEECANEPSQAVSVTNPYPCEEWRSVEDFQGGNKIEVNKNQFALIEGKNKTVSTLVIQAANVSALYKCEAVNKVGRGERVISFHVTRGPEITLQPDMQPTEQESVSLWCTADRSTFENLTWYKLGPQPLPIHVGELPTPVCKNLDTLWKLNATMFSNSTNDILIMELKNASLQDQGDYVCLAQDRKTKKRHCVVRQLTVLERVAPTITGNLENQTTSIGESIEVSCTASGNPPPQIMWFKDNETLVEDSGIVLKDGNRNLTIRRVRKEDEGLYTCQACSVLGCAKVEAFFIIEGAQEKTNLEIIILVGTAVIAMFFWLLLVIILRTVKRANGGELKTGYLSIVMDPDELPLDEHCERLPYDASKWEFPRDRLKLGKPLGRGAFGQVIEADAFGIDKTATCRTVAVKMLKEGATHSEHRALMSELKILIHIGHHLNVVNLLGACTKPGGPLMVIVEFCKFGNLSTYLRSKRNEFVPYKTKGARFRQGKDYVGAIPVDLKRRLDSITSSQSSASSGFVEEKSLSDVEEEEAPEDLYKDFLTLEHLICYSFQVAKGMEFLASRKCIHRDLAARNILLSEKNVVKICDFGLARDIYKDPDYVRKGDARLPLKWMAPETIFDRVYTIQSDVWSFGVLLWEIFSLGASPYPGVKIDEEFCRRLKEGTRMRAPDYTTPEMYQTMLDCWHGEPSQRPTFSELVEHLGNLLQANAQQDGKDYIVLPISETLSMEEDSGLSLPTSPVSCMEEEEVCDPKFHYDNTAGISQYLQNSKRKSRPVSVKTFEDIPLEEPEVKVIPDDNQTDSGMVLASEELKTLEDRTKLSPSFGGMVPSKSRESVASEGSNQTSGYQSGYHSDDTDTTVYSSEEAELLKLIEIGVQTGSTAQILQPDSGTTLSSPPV

COc1cccc(Nc2nccc(Nc3ccc4[nH]ncc4c3)n2)c1
GI50 (K562): 1.3 µM
LC50 (K562): 7.13 µM
TGI (K562): 3.89 µM
GI50 (U-251): 1.58 µM
TGI (U-251): 3.18 µM
CC50 (U-251; [19]): 6.39 µM
pIC50 [1]: 7.09
GI50 [2]: 1.06 µM
LC50 (50% lethal concentration) [2]: 5.1 µM
TGI [2]: 2.33 µM
GI50 [3]: 2.41 µM
TGI [3]: 6.13 µM
CC50 [3, 19]: 21 µM
GI50 [4]: 1.67 µM
TGI [4]: 4.39 µM
CC50 [4, 19]: 13.4 µM
GI50 [5]: 1.39 µM
LC50 [5]: 7.08 µM
TGI [5]: 3.13 µM
GI50 [6]: 1.34 µM
LC50 [6]: 7.23 µM
TGI [6]: 3.12 µM
inhibition [7]: 76%
GI50 (HT-29): 1.52 µM
TGI (HT-29): 3.45 µM
CC50 (HT-29; [19]): 7.83 µM
GI50 [8]: 1.57 µM
LC50 [8]: 6.76 µM
TGI [8]: 3.26 µM
GI50 [9]: 1.44 µM
LC50 [9]: 7.07 µM
TGI [9]: 3.19 µM
GI50 (NCI-H522): 1.48 µM
LC50 (NCI-H522): 5.54 µM
TGI (NCI-H522): 2.86 µM
GI50 (MCF7): 1.26 µM
TGI (MCF7): 3.11 µM
CC50 (MCF7; [19]): 7.53 µM
GI50 (MDA-MB-468): 1.25 µM
TGI (MDA-MB-468): 2.77 µM
CC50 (MDA-MB-468; [19]): 6.13 µM
GI50 (M14): 1.35 µM
TGI (M14): 2.81 µM
CC50 (M14; [19]): 5.83 µM
GI50 [10]: 1.3 µM
LC50 [10]: 6.24 µM
TGI [10]: 2.85 µM
GI50 [11]: 2.04 µM
TGI [11]: 3.73 µM
CC50 [11, 19]: 6.79 µM
GI50 [12]: 0.99 µM
TGI [12]: 2.51 µM
CC50 [12, 19]: 6.33 µM
GI50 (T47D): 1.05 µM
LC50 (concentration killing 50% of cells) (T47D): 9.23 µM
TGI (T47D): 3.12 µM
GI50 (NCI-H460): 1.64 µM
LC50 (50% lethal concentration) (NCI-H460): 11.5 µM
TGI (NCI-H460): 4.17 µM
GI50 [13]: 1.54 µM
LC50 [13]: 14.8 µM
TGI [13]: 4.36 µM
GI50 [14]: 1.59 µM
TGI [14]: 3.23 µM
CC50 [14, 19]: 6.54 µM
GI50 (SK-MEL-2): 1.62 µM
LC50 (SK-MEL-2): 6.59 µM
TGI (SK-MEL-2): 3.27 µM
GI50 [15]: 2.31 µM
LC50 [15]: 16.4 µM
TGI [15]: 5.4 µM
GI50 (A549): 1.71 µM
TGI (A549): 3.74 µM
CC50 (A549; [19]): 8.22 µM
GI50 [16]: 1.21 µM
LC50 [16]: 7.01 µM
TGI [16]: 2.91 µM
GI50 (KM12): 1.64 µM
TGI (KM12): 4.81 µM
CC50 (KM12; [19]): 17.4 µM
GI50 [17]: 1.53 µM
LC50 [17]: 8.29 µM
TGI [17]: 3.56 µM
GI50 [18]: 1.45 µM
TGI [18]: 4.14 µM
CC50 [18, 19]: 15.3 µM
GI50 (A498): 1.65 µM
TGI (A498): 5.3 µM
CC50 (A498; [19]): 30.5 µM
GI50 (NCI-H23): 1.69 µM
TGI (NCI-H23): 3.83 µM
CC50 (NCI-H23; [19]): 8.7 µM

Source: ChEMBL document CHEMBL3817755, “Design, synthesis and biological evaluation of indazolepyrimidine based derivatives as anticancer agents with anti-angiogenic and antiproliferative activities” (Medchemcomm, 2016)
